Experimental findings from patent US8735411B2, “Macrocyclic benzofused pyrimidine derivatives” (AbbVie Inc., priority 2006, dated 2014) are described below.

Molecules are shown by their SMILES.

Test [1] addresses T1, histamine H4 receptor (Homo sapiens, UniProt Q9H3N8). The test can be described thus: [3H]-histamine competition binding assay on membranes of transfected HEK-293 cells. More on the design: expressed in transfected cells; host or cells: HEK-293 cells, transient transfection with pCINeo vector; membranes. The note with it: displacement of [3H]-histamine; Ki by Cheng-Prusoff equation; read-out: Potency. As for the experimental part: In this assay, membranes were prepared from HEK-293 cells transiently transfected with the pCINeo expression vector harboring the histamine H4 receptor by homogenization of the cells on ice in TE buffer (50 mM Tris-HCl buffer, pH 7.4, containing 5 mM EDTA), 1 mM benzamidine, 2 μg/ml aprotinin, 1 μg/ml leupeptin, and 1 μg/ml pepstatin. The homogenate was centrifuged at 40,000 g for 20 minutes at 4° C. This step was repeated, and the resulting pellet was resuspended in TE buffer. Aliquots were frozen at −70° C. until needed. On the day of assay, membranes were thawed and diluted with TE buffer. Competition radioligand binding assays were performed with increasing concentrations of test compound in the presence of [^3H]-histamine incubated at 25° C. for 1 hour in a total volume of 0.5 ml of 50 mM Tris, 5 mM EDTA, pH 7.4. All binding reactions were terminated by filtration under vacuum onto polyethylenimine (0.3%) presoaked Unifilters (PerkinElmer Life Sciences) or Whatman GF/B filters (Whatman, Clifton, N.J.) followed by three brief washes with 4 ml of ice-cold TE buffer. Bound radiolabel was determined by liquid scintillation counting. For all of the radioligand competition binding assays, IC50 values and Hill slopes were determined by Hill transformation of the data and Ki values were determined by the Cheng-Prusoff equation.
Target sequence in this assay (Q9H3N8 whole entry, species assumed): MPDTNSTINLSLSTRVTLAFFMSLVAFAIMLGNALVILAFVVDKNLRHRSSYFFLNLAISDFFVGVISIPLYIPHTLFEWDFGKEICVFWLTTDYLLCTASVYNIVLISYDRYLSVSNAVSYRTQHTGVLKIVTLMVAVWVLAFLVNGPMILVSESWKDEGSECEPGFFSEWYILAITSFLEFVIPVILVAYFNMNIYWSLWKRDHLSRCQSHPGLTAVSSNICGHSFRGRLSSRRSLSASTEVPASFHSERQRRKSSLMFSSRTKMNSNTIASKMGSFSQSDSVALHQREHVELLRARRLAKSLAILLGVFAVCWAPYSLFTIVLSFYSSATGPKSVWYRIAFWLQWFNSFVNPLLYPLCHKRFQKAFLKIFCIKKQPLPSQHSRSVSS

Test [2] deals with neuropathic pain. The test can be described thus: Analgesic effect against neuropathic pain: L5/L6 spinal nerve ligation (Chung model), von Frey mechanical allodynia. The format is in vivo, rat. Conditions: 30 minutes before testing. Here is the method: Animals were prepared for testing, by use of a surgical procedure that induces neuropathic pain in one paw. Male Sprague Dawley rats were purchased from Charles River (Portage, Mich.). Prior to surgery, animals were housed in groups and maintained in a temperature-regulated environment. Following nerve ligation surgery, animals were housed in groups, and had access to food and water ad libitum.
The L5 and L6 spinal nerves of anesthetized rats were tightly ligated in a manner described previously (see Kim and Chung, Pain (1992) vol. 50 pp. 355-363). An incision was made on the dorsal portion of the hip and the muscle was blunt-dissected to reveal the spinal processes. The L6 transverse process was removed, and the left side L5 and L6 spinal nerves were tightly ligated with 5.0 braided silk suture. The wound was cleaned, the membrane sewn with 4.0 dissolvable Vicryl suture and the skin closed with wound clips. The paw affected by the surgical procedure (the left paw) develops an allodynic response, a hypersensitivity to mechanical and other stimuli; neuropathic pain is assessed as an increased sensitivity in the surgically affected (left) allodynic paw compared to the control paw on the right side, and measured by comparing the response of the (left side) allodynic paw to the response of the unaffected right side control paw.
For the assessment of neuropathic pain, mechanical allodynia in the affected paw of animals that had undergone spinal nerve ligation was evaluated using testing with von Frey filaments. As described previously by S. R. Chaplan, et al (“Quantitative assessment of tactile allodynia in the rat paw” J. Neurosci. Meth. (1994) vol. 53 pp. 55-63), two weeks following surgery rats were acclimated to a testing box constructed of plexiglass with a wire mesh floor which allowed access to the plantar surface of the animal's hindpaws. Using an Up-Down method (Dixon, Annu. Rev. Pharmacol. Toxicol. (1980) vol. 20, pp. 441-462; Chaplan et al. “Quantitative assessment of tactile allodynia in the rat paw” J. Neuroscience Methods (1994) vol. 53 pp. 55-63), von Frey filaments of increasing stiffness were applied to the plantar surface of the hindpaws and the withdrawal response of the animals was observed; for the surgically affected paw with neuropathic pain (the left side paw) the baseline level of allodynia has a withdrawal threshold of ≦4 g of pressure. […] The efficacy of the compound in reducing neuropathic pain at different doses is determined by comparing response in the surgery-affected paw versus the response in the control paw. This is expressed as the MPE (maximum percent effect), or 100 times the withdrawal threshold of the allodynic (left side) divided by the withdrawal threshold of the control (right side).

The target in test [3] is T1, histamine H4 receptor. The test can be described thus: In vitro histamine H4 potency in FLIPR (Ca2+ flux, HEK-293 cells coexpressing Gαqi5). It is filed as cell-based. Further details: expressed in transfected cells. The note with it: Kb for antagonists and inverse agonists, EC50 for partial agonists. The essentials:
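Fluo-4-loaded cells read on FLIPR for intracellular Ca2+ rise after compound addition, with pre-addition fluorescence subtracted. Peak responses per concentration expressed as % of the full-agonist histamine response. Concentration–response fits give Kb for antagonists/inverse agonists and EC50 for partial agonists.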
Target sequence in this assay (Q9H3N8 whole entry): as the sequence (Q9H3N8 whole entry, species assumed) above

Test [4] deals with inflammatory pain. The experiment in a line: Analgesic effect against inflammatory pain: carrageenan-induced thermal hyperalgesia, hotbox assay. The format is in vivo. The note with it: 100 micromole/kg i.p., 90 min after carrageenan, tested 30 min after dosing. Here is the method: To assess the effectiveness of representative compounds of the invention against acute model inflammatory pain, animals were tested in an acute model of carrageenan-induced thermal hyperalgesia (see for example, Honore, et al. Behavioural Brain Research 167 (2006) 355-364; Porreca, et al. Journal of Pharmacology and Experimental Therapeutics (2006) vol. 318 pp. 195-205). Carrageenan was injected into the test paw of the animal, and after 90 minutes, the test drug was administered by intraperitoneal dosing; the effect on thermal hyperalgesia was assessed in a hotbox assay which done 30 minutes after the intraperitoneal dosing of the test drug, and the MPE (maximal percent effect) reported by comparison to the control paw (not injected with carrageenan), according to 100 times the withdrawal latency of the carrageenan injected paw (in seconds) divided by the withdrawal latency of the control (not injected with carrageenan) paw.

Test [5] concerns pain in a surgical skin incision model. The test can be described thus: Analgesic effect in surgical skin incision model, von Frey mechanical allodynia. It is filed as in vivo, rat. Here is the method: This is a surgical skin incision model (Joshi, et al. Pain 123 (2006) 75-82). Animals (rats) were prepared for testing by subjecting them in a surgical procedure carried out under sterile conditions, where the plantaris muscle was elevated and incised longitudinally with the origin and insertion of the muscle remaining intact. The skin was then closed with two mattress sutures (e.g. 5-0 nylon sutures). After surgery, animals were allowed to recover on a warming plate and housed individually in cages with soft bedding. […] Animals were tested for mechanical allodynia using von Frey hair mechanical stimulation 2, 24, and 48 h after surgery as described for the Chung model.

Consider `CNC1CN(c2nc(N)nc3c2CCCc2ccccc2-3)C1` [Example 3, 4-(3-Methylamino-azetidin-1-yl)-6,7-dihydro-5H-benzo[6,7]cyclohepta[1,2-d]pyrimidin-2-ylamine], for which, in test [1], the Ki stood at 4 nM. Also, the MPE worked out at 36% in test [2] (100 micromole/kg i.p.); 78% in test [2] (300 micromole/kg i.p.); 41% in test [4]; 21% in test [5] (30 micromole/kg i.p.); 69% in test [5] (100 micromole/kg i.p.). The Potency in test [3] is 9.3 nM.

In the case of `Nc1nc2c(c(N3CC[C@@H](N)C3)n1)CCCc1ccccc1-2` [Example 16, 4-((3R)-3-Amino-pyrrolidin-1-yl)-6,7-dihydro-5H-benzo[6,7]cyclohepta[1,2-d]pyrimidin-2-ylamine], the MPE was 47% in test [2] (100 micromole/kg i.p.) and 68% in test [4].

Regarding `CN[C@@H]1CCN(c2nc(N)nc3c2CCCc2ccccc2-3)C1` [Example 6, 4-(3-(R)-Methylamino-pyrrolidin-1-yl)-6,7-dihydro-5H-benzo[6,7]cyclohepta[1,2-d]pyrimidin-2-ylamine], the Ki in test [1] was found to be 5 nM. In test [3], this compound came in with a Potency of 6.6 nM.

Turning to `Nc1nc2c(c(N3CCNCC3)n1)CCCc1ccccc1-2` [Example 7, 4-Piperazin-1-yl-6,7-dihydro-5H-benzo[6,7]cyclohepta[1,2-d]pyrimidin-2-ylamine], in test [1], the Ki came to 8 nM. The figures for the MPE in test [2] (100 micromole/kg i.p.) and in test [4] were 30% and 23%, respectively. In test [3], this compound had a Potency of 15 nM.

With `CN[C@@H]1CCN(c2nc(N)nc3c2CCOc2ccc(C)cc2-3)C1` [Example 46, 10-methyl-4-[(3R)-3-(methylamino)pyrrolidin-1-yl]-5,6-dihydro[1]benzoxepino[5,4-d]pyrimidin-2-amine], the Potency in test [3] is given as 100 nM.

Take `COC(=O)N(C)c1ccc2c(c1)-c1nc(N)nc(N3CC4CCCNC4C3)c1CCC2` (centres unmarked) [Example 130, (2-Amino-4-octahydro-pyrrolo[3,4-b]pyridin-6-yl-6,7-dihydro-5H-benzo[6,7]cyclohepta[1,2-d]pyrimidin-10-yl)-methyl-carbamic acid methyl ester]: the Potency in test [3] was determined as 164 nM.

In test [3], `Nc1nc2c(c(N3CC4(CCCCN4)C3)n1)CCCc1ccccc1-2` [Example 78, 4-(2,5-Diaza-spiro[3.5]non-2-yl)-6,7-dihydro-5H-benzo[6,7]cyclohepta[1,2-d]pyrimidin-2-ylamine] showed a Potency of 891 nM.

`Nc1nc2c(c(N3CCN4CCCC4C3)n1)CCCc1ccccc1-2` (centres unmarked) [Example 80, 4-(Octahydro-pyrrolo[1,2-a]pyrazin-2-yl)-6,7-dihydro-5H-benzo[6,7]cyclohepta[1,2-d]pyrimidin-2-ylamine] returned a Potency in test [3] of 178 nM.

Regarding `Cc1cc(C)c2c(c1)-c1nc(N)nc(N3CCNCC3)c1CCC2` [Example 126, 8,10-Dimethyl-4-piperazin-1-yl-6,7-dihydro-5H-benzo[6,7]cyclohepta[1,2-d]pyrimidin-2-ylamine], the Potency in test [3] is on record as 2754 nM.
